Test results reported in PubChem BioAssay (NCI).
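Protocol summary: plate cells (96-well), add compound at 5 concentrations, incubate 48 h, interpolate endpoints linearly. GI50 marks 50% less growth. TGI: total growth inhibition.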

How the values were obtained:
Test in all cases: DTP human tumour cell line panel, 48 h
[1] = test system: ACHN renal
[2] = test system: DU-145 prostate
[3] = test system: EKVX NSCLC
[4] = test system: NCI/ADR-RES ovarian
[5] = test system: OVCAR-5 ovarian
[6] = test system: PC-3 prostate
[7] = test system: SF-268 CNS
[8] = test system: SK-MEL-28 melanoma
[9] = test system: SK-MEL-5 melanoma
[10] = test system: UACC-257 melanoma

SMILES	GI50 [1]	TGI [1]	GI50 [2]	TGI [2]	GI50 [3]	TGI [3]	GI50 [4]	TGI [4]	GI50 [5]	TGI [5]	GI50 [6]	TGI [6]	GI50 [7]	TGI [7]	GI50 [8]	TGI [8]	GI50 [9]	TGI [9]	GI50 [10]	TGI [10]
C[C@H](Nc1ncnc2nc[nH]c12)c1cc2ccc(F)cc2nc1-c1ccccn1	47.9 µM	> 100 µM	> 100 µM	> 100 µM	> 70.7 µM	> 100 µM	> 100 µM	> 100 µM	> 77.2 µM	> 100 µM	25 µM	> 100 µM	> 100 µM	> 100 µM	> 100 µM	> 100 µM	91.2 µM	> 100 µM	> 100 µM	> 100 µM
COc1ccc(C(=O)COC(=O)[C@H](C[Se][Se]C[C@H](NC(=O)c2ccc(Br)cc2F)C(=O)OCC(=O)c2ccc(OC)cc2)NC(=O)c2ccc(Br)cc2F)cc1	0.884 µM	2.49 µM	0.843 µM	2.68 µM	0.591 µM	2.35 µM	0.399 µM	1.39 µM	0.816 µM	2.54 µM	0.318 µM	1.41 µM	0.943 µM	3.21 µM	1.59 µM	5.61 µM	0.596 µM	2.76 µM	2.25 µM	5.31 µM
Cl.Fc1c[c-]c(-c2ccccn2)c(F)c1.[Pt].c1ccc(P(c2ccccc2)C([PH+](c2ccccc2)c2ccccc2)[PH+](c2ccccc2)c2ccccc2)cc1	3.05 µM	> 100 µM	3.57 µM	20.1 µM	3.1 µM	> 100 µM	34.9 µM	> 100 µM	2.97 µM	> 100 µM	2.17 µM	> 100 µM	3.22 µM	25.1 µM	5.02 µM	26.9 µM	2.08 µM	4.53 µM	2.75 µM	8.09 µM
COc1ccc2c(c1)[nH]c(=O)c1c3cc(OC)ccc3cn21	0.0199 µM	1.55 µM	< 0.019 µM	0.256 µM	0.0728 µM	2.67 µM	< 0.01 µM	0.02 µM	0.0545 µM	2.3 µM	< 0.0104 µM	1.52 µM	< 0.0154 µM	1.44 µM	0.0102 µM	2.01 µM	< 0.0128 µM	0.116 µM	14.6 µM	29.1 µM
Clc1ccc2c(c1)N(CCCN1CCCC1)c1ccccc1S2	4.86 µM	17.9 µM	8.61 µM	20.9 µM	8 µM	21.6 µM	5.34 µM	18.8 µM	12.7 µM	28.3 µM	4.38 µM	16.1 µM	5.75 µM	20.7 µM	6.6 µM	21.4 µM	1.83 µM	3.32 µM	11.4 µM	23.8 µM
CN(Cc1cc(Br)cc(Br)c1O)Cc1cc(Br)cc(Br)c1O	1.63 µM	18.9 µM	5.48 µM	22.2 µM	3.03 µM	20.2 µM	1.83 µM	12.6 µM	6.13 µM	21.9 µM	4.37 µM	25 µM	2.87 µM	21.1 µM	10.9 µM	24.6 µM	1.34 µM	3.71 µM	2.44 µM	11.5 µM
